Our source for the EC50 values is US10662171B2, “Antidiabetic bicyclic compounds” (Merck Sharp & Dohme Corp., priority 2014, dated 2020).

The target in the experiment is T1, human GPR40 (Homo sapiens, UniProt O14842).
T1 construct: expressed in transfected cells; host or cells: HEK cells stably expressing the aequorin reporter
Briefly: Inositol Phosphate Turnover (IP1) Assay 2. The settings on record: HEK cells stably expressing human GPR40; compound acoustically transferred; 60 minutes at 37 degrees. It is filed as cell-based. The method, then:
Human and mouse GPR40 stable cell-lines were generated in CHO cells stably expressing NFAT BLA (Beta-lactamase). A human GPR40 stable cell-line was generated in HEK cells stably expressing the aequorin expressing reporter. The expression plasmids were transfected using lipofectamine (Life Technologies) following manufacturer's instructions. Stable cell-lines were generated following drug selection.
The assay is performed in 384-well format. HEK cells stably expressing human GPR40 are plated at 15,000 cells per well in growth medium (DMEM/10% fetal calf serum). Cell plates are then incubated 16 hours at 37 degrees in a 5% CO2 incubator.
Measurement of Inositol Phosphate Turnover (IP1) is performed using the CisBio IP-One kit (Part number 62IPAPEB). After the 16 hour incubation, the cells are washed with HEPES buffer and 10 ul of stimulation buffer (prepared as described in the kit) is added to each well. In a separate plate, compounds are diluted in DMSO (400-fold over the final concentration in the assay well) and 25 nl is acoustically transferred to the appropriate well in the assay cell plate. The plates were then incubated for 60 minutes at 37 degrees. 10 ul of detection buffer (also prepared as described in the IP-One kit) is added to each well and the plates are incubated for 60 minutes in the dark. The plates are then read in a Perkin Elmer EnVision or equivalent reader able to measure FRET. Fluorescent ratio of emission at 665 and 620 nm is then converted to IP1 concentration by back calculating from an IP1 standard curve prepared at the time of the assay.

T1 sequence (O14842 whole entry): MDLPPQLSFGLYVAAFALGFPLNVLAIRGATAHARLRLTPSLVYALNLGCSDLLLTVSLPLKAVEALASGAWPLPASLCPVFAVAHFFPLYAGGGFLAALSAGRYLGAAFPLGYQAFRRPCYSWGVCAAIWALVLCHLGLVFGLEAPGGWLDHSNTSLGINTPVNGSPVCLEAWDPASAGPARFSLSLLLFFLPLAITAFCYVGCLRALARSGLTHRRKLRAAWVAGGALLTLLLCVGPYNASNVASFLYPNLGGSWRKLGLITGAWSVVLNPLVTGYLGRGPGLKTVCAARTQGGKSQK

Compound `COc1cc(-c2ccc(C3CCc4ccc(C(C5CC5)C(C)C(=O)O)cc4C3)c(F)c2)ccn1` (single isomer, unassigned) [Example 36] had an EC50 of 4.8 nM.

For the compound `COc1cc(-c2ccc([C@@H]3Cc4cc([C@H](C5CC5)[C@H](C)C(=O)O)ccc4CO3)c(F)c2)ccn1` [Example 38A, (2S,3R)-3-cyclopropyl-3-((S)-3-(2-fluoro-4-(2-methoxypyridin-4-yl)phenyl)isochroman-6-yl)-2-methylpropanoic acid], the EC50 was determined as 4.2 nM. For `COc1cc(-c2ccc(C3=Cc4cc([C@@H](C5CC5)[C@@H](C)C(=O)O)ccc4CC3)c(F)c2)ccn1` (single isomer, unassigned) [Example 30] the value was 3.8 nM; for `COc1cc(-c2ccc(C3CCc4ccc(C(C5CC5)C(C)C(=O)O)cc4C3)c(F)c2)ccn1` (single isomer, unassigned) [Example 37], 0.42 nM; for `COc1cc(-c2ccc(C3CCc4ccc(C(C5CC5)C(C)C(=O)O)cc4C3)c(F)c2)ccn1` (single isomer, unassigned) [Example 35], 257 nM.

In turn, `COc1cc(-c2ccc(C3=Cc4cc([C@@H](C5CC5)[C@H](C)C(=O)O)ccc4CC3)c(F)c2)ccn1` (single isomer, unassigned) [Example 29] showed an EC50 of 3960 nM. In turn, `COc1ccc(F)c(-c2ccc([C@H]3Cc4cc([C@H](C5CC5)[C@H](C)C(=O)O)ccc4CO3)cc2)c1` [Example 22, (2S,3R)-3-cyclopropyl-3-((R)-3-(2′-fluoro-5′-methoxy-1,1′-biphenyl-4-yl)isochroman-6-yl)-2-methylpropanoic acid] had an EC50 of 0.5 nM.

`COc1cc(-c2ccc(C3COc4ccc([C@H](C5CC5)[C@H](C)C(=O)O)cc4C3)c(F)c2)ccn1` (single isomer, unassigned) [Example 18] showed an EC50 of 8.1 nM.

Usually EC50 stands for the concentration giving half of the maximal effect. Read a low EC50 as greater potency.
